This is an account of results in PubChem BioAssay AID651630 (Sanford-Burnham Center for Chemical Genomics, 2012).

For one assay, the system named is DAPI. The assay is described as follows: triacylglycerol accumulation inhibitor potency, dose response, cell-based, panel, Nile Red and DAPI fluorescence, H9c2 (AID 651630).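 Also: cells exposed to compound overnight before fixation and staining.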 The settings on record: H9c2 cells, DAPI nuclear fluorescence (cytotoxicity counter-readout), oleic acid.
The test system of the next assay is TAG. The description is as above. The settings on record: H9c2 cells, Nile Red TAG fluorescence, oleic acid.

The source made the active and inactive calls.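 The calls were made as follows: active = lipid-stain IC50 at or below a set limit, with nuclear-stain toxicity IC50 at least five times higher; inactive = the rest.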

As for `Cc1onc(-c2ccc(Cl)cc2Cl)c1-c1csc(N/N=C/c2ccccc2)n1`, the IC50 cytotoxicity (DAPI nuclear signal decrease) with DAPI (mean of runs) is > 25 µM (inactive); in the assay with DAPI (run 1), over 25 µM; in the assay on DAPI (run 2), over 25 µM. Besides, the IC50 in the assay with TAG (mean of runs) is > 25 µM (inactive); in the assay on TAG (run 1), over 25 µM; in the assay with TAG (run 2) it was over 25 µM.

On to `O=C(NC1CCCCC1)C(c1ccccc1)N(Cc1ccc2c(c1)OCO2)C(=O)c1cnsn1` (stereo not drawn), for which the values for the IC50 cytotoxicity (DAPI nuclear signal decrease) in the assay on DAPI (mean of runs), with DAPI (run 1) and in the assay on DAPI (run 2) were > 25 µM (inactive), over 25 µM and over 25 µM, respectively. In addition, the IC50 in the assay with TAG (mean of runs) is 18.7 µM (inactive); with TAG (run 1), 17.2 µM; with TAG (run 2), 20.2 µM.

With `C/C(=N\Nc1ccc(Cl)nn1)c1ccccc1O`, the IC50 cytotoxicity (DAPI nuclear signal decrease) was > 25 µM (inactive) in the assay with DAPI (mean of runs), over 25 µM in the assay on DAPI (run 1) and over 25 µM in the assay on DAPI (run 2). Besides, the IC50 with TAG (mean of runs) was > 25 µM (inactive); with TAG (run 1), over 25 µM; in the assay with TAG (run 2), over 25 µM.

For `C[C@H]1CCCCO[C@H](CN(C)CC2CCCCC2)[C@@H](C)CN([C@@H](C)CO)C(=O)c2cc(NS(=O)(=O)c3ccccc3)ccc2O1`, the results for the IC50 cytotoxicity (DAPI nuclear signal decrease) in the assay with DAPI (mean of runs), in the assay with DAPI (run 1) and in the assay with DAPI (run 2) were > 25 µM (inactive), over 25 µM and over 25 µM, respectively. For the same compound, the IC50 in the assay with TAG (run 1) was 22.5 µM; with TAG (run 2) it was over 25 µM.

Regarding `Cc1cc(NC(=O)c2ccccc2F)n(-c2nc3ccccc3[nH]2)n1`, the values for the IC50 cytotoxicity (DAPI nuclear signal decrease) in the assay on DAPI (mean of runs), in the assay with DAPI (run 1) and with DAPI (run 2) were > 25 µM (inactive), over 25 µM and over 25 µM, respectively. The IC50 in the assay on TAG (mean of runs) is 16.8 µM (inactive); with TAG (run 1), 16.8 µM; with TAG (run 2), 16.9 µM.

For the compound `Cc1ccc(-c2nn(-c3ccccc3)cc2CSC(=N)N)cc1`, the IC50 cytotoxicity (DAPI nuclear signal decrease) with DAPI (mean of runs) was 21 µM; in the assay with DAPI (run 1), 21.1 µM; in the assay with DAPI (run 2) it was 20.9 µM. In addition, the IC50 in the assay with TAG (mean of runs) was 3.82 µM; in the assay with TAG (run 1), 3.92 µM; with TAG (run 2), 3.73 µM.

For the compound `CC1(C(=O)NCc2ccco2)Cc2c(-c3cccc(C(F)(F)F)c3)ccnc2O1` (stereo not drawn), the IC50 cytotoxicity (DAPI nuclear signal decrease) was > 25 µM (inactive) in the assay on DAPI (mean of runs), over 25 µM in the assay with DAPI (run 1) and over 25 µM in the assay on DAPI (run 2). Besides, the IC50 is > 25 µM (inactive) in the assay on TAG (mean of runs), over 25 µM in the assay on TAG (run 1) and over 25 µM in the assay on TAG (run 2).

Consider `CCCCOc1ccccc1NC(=O)Cn1c(-c2nonc2N)nc2ccccc21`, for which the IC50 cytotoxicity (DAPI nuclear signal decrease) is > 25 µM (inactive) with DAPI (mean of runs), over 25 µM in the assay on DAPI (run 1) and over 25 µM in the assay on DAPI (run 2). Also, the results for the IC50 in the assay with TAG (mean of runs), with TAG (run 1) and in the assay with TAG (run 2) were > 25 µM (inactive), over 25 µM and over 25 µM, respectively.

For the compound `COc1cc(C#Cc2c(-c3cncn3C)n(C)c3ccc(-c4cc(OC)c(OC)c(OC)c4)cc23)cc(OC)c1`, the values for the IC50 cytotoxicity (DAPI nuclear signal decrease) with DAPI (mean of runs), in the assay on DAPI (run 1) and in the assay with DAPI (run 2) were > 25 µM (inactive), over 25 µM and over 25 µM, respectively. Further, the IC50 was > 25 µM (inactive) with TAG (mean of runs), over 25 µM with TAG (run 1) and over 25 µM in the assay on TAG (run 2).

Take `COc1cc2ccccc2cc1C(=O)N/N=C/c1cccs1`: the figures for the IC50 cytotoxicity (DAPI nuclear signal decrease) in the assay on DAPI (mean of runs), with DAPI (run 1) and in the assay on DAPI (run 2) were > 25 µM (inactive), over 25 µM and over 25 µM, respectively. Further, the IC50 in the assay on TAG (mean of runs) is > 25 µM (inactive); with TAG (run 1), over 25 µM; in the assay on TAG (run 2) it was over 25 µM.

For `CCN(CC)CCNC(=O)C(Cl)=C1C(Cl)=C(Cl)C(Cl)=C1Cl`, the IC50 cytotoxicity (DAPI nuclear signal decrease) is 21.4 µM (inactive) in the assay with DAPI (mean of runs), 20.2 µM with DAPI (run 1) and 22.7 µM in the assay on DAPI (run 2). Besides, the IC50 is > 25 µM (inactive) with TAG (mean of runs), over 25 µM with TAG (run 1) and over 25 µM in the assay on TAG (run 2).

Consider `COc1ccc(CN(C)C[C@@H]2OCCCC[C@H](C)Oc3ccc(NC(=O)Nc4ccc(F)cc4)cc3C(=O)N([C@H](C)CO)C[C@H]2C)cc1`, for which the figures for the IC50 cytotoxicity (DAPI nuclear signal decrease) in the assay on DAPI (mean of runs), with DAPI (run 1) and in the assay with DAPI (run 2) were > 25 µM (inactive), over 25 µM and over 25 µM, respectively. For the same compound, the IC50 was 21.8 µM with TAG (run 1) and over 25 µM in the assay with TAG (run 2).

Take `C[C@@H]1CN([C@@H](C)CO)C(=O)c2cccc(NC(=O)Nc3ccc(F)cc3)c2O[C@@H]1CN(C)Cc1ccc(Oc2ccccc2)cc1`: the IC50 cytotoxicity (DAPI nuclear signal decrease) in the assay with DAPI (run 1) and in the assay with DAPI (run 2) was over 25 µM throughout. Also, the figures for the IC50 in the assay with TAG (mean of runs), in the assay on TAG (run 1) and with TAG (run 2) were 1.42 µM, 1.71 µM and 1.14 µM, respectively.

Regarding `CCOC(=O)c1cc(-c2ccncc2)nc2c1c(C)nn2-c1ccccn1`, the IC50 cytotoxicity (DAPI nuclear signal decrease) in the assay with DAPI (mean of runs) was > 25 µM (inactive); in the assay on DAPI (run 1), over 25 µM; in the assay on DAPI (run 2), over 25 µM. For the same compound, the IC50 is 14.1 µM in the assay on TAG (run 1) and over 25 µM in the assay on TAG (run 2).

On to `Cc1cccn2c(=O)c3cc(C(=O)NC4CCCC4)c(=N)n(C4CCCC4)c3nc12`, for which the IC50 cytotoxicity (DAPI nuclear signal decrease) with DAPI (mean of runs) is > 25 µM (inactive); with DAPI (run 1), over 25 µM; in the assay on DAPI (run 2), over 25 µM. For the same compound, the IC50 in the assay with TAG (mean of runs) was 11.9 µM; in the assay with TAG (run 1) it was 8.07 µM; with TAG (run 2), 15.8 µM.

In the case of `CC(C)CN(C#N)c1nc(N2CCOCC2)nc(N2CCOCC2)n1`, the IC50 cytotoxicity (DAPI nuclear signal decrease) in the assay with DAPI (mean of runs) is > 25 µM (inactive); in the assay with DAPI (run 1), over 25 µM; in the assay with DAPI (run 2), over 25 µM. Also, the IC50 in the assay on TAG (mean of runs) was 20.5 µM (inactive); in the assay with TAG (run 1) it was 19.4 µM; with TAG (run 2), 21.5 µM.

On to `COCCCNC(=O)C(=O)Nc1ccc2c(c1)N(S(=O)(=O)c1cccs1)CCC2`, for which the IC50 cytotoxicity (DAPI nuclear signal decrease) was > 25 µM (inactive) in the assay on DAPI (mean of runs), over 25 µM in the assay with DAPI (run 1) and over 25 µM in the assay on DAPI (run 2). Also, the IC50 in the assay with TAG (run 1) was 7.64 µM; with TAG (run 2), over 25 µM.

As for `CCOC(=O)Cc1ccc(Nc2nc3cc(-c4sccc4C)sc3c(=O)n2C)cc1`, the IC50 cytotoxicity (DAPI nuclear signal decrease) in the assay on DAPI (mean of runs) is > 25 µM (inactive); with DAPI (run 1), over 25 µM; in the assay with DAPI (run 2) it was over 25 µM. Besides, the IC50 was 18.5 µM (inactive) in the assay on TAG (mean of runs), 12.9 µM in the assay with TAG (run 1) and 24.1 µM in the assay with TAG (run 2).

Take `COc1cccc(/C=C/C(=C2/C(=O)N(c3ccccc3)N=C2C)c2ccc(C)cc2)c1OC`: the IC50 cytotoxicity (DAPI nuclear signal decrease) in the assay on DAPI (run 1) and in the assay with DAPI (run 2) was over 25 µM throughout. Also, the IC50 was 1.63 µM in the assay with TAG (mean of runs), 1.64 µM in the assay on TAG (run 1) and 1.61 µM in the assay with TAG (run 2).

For the compound `O=C(CCC1CCCCC1)NCCN1C2=NC[C@@H](Cc3ccccc3)N2C[C@H]1Cc1ccc(O)cc1`, the figures for the IC50 cytotoxicity (DAPI nuclear signal decrease) in the assay on DAPI (mean of runs), with DAPI (run 1) and in the assay on DAPI (run 2) were > 25 µM (inactive), over 25 µM and over 25 µM, respectively. The figures for the IC50 in the assay on TAG (mean of runs), in the assay with TAG (run 1) and in the assay with TAG (run 2) were > 25 µM (inactive), over 25 µM and over 25 µM, respectively.

As for `COc1cc2c3c(c1)c(C1=NC(=S)NC1=O)c(O)n3C(C)(C)C=C2C`, the IC50 cytotoxicity (DAPI nuclear signal decrease) in the assay on DAPI (mean of runs) was > 25 µM (inactive); with DAPI (run 1), over 25 µM; in the assay on DAPI (run 2) it was over 25 µM. Also, the IC50 with TAG (mean of runs) is 6 µM; in the assay on TAG (run 1), 6.7 µM; in the assay with TAG (run 2), 5.3 µM.

For `COc1cccc(-c2cc(C(=O)Nc3ccc(N(C)C(C)=O)cc3)c3cc(Br)ccc3n2)c1`, the IC50 cytotoxicity (DAPI nuclear signal decrease) with DAPI (mean of runs) is > 25 µM (inactive); in the assay on DAPI (run 1), over 25 µM; in the assay with DAPI (run 2), over 25 µM. The IC50 with TAG (mean of runs) is 12.3 µM; with TAG (run 1), 11.7 µM; in the assay on TAG (run 2), 12.9 µM.

As to `Cn1nnc2c[n+](CC(=O)c3ccc(Cl)cc3)cc(Br)c21`, the IC50 cytotoxicity (DAPI nuclear signal decrease) in the assay with DAPI (mean of runs) is 21.5 µM (inactive); with DAPI (run 1), 20.9 µM; in the assay with DAPI (run 2) it was 22.1 µM. For the same compound, the concentration for half-maximal inhibition (IC50) in the assay on TAG (mean of runs) is 13.5 µM; with TAG (run 1) it was 13.9 µM; in the assay with TAG (run 2), 13.2 µM.

For `CCOc1ccc(C(=O)Nc2nnc(NC(=S)Nc3ccccc3)s2)cc1`, the IC50 cytotoxicity (DAPI nuclear signal decrease) with DAPI (mean of runs) is > 25 µM (inactive); in the assay on DAPI (run 1), over 25 µM; in the assay on DAPI (run 2) it was over 25 µM. Besides, the IC50 in the assay with TAG (run 1) is over 25 µM; in the assay with TAG (run 2), 23 µM.

With `C[C@@]12C(=O)Nc3ccc(Br)cc3C(=O)N1[C@H]1c3cc(Cl)ccc3OC[C@@H]1[C@@H]2c1ccccc1`, the figures for the IC50 cytotoxicity (DAPI nuclear signal decrease) in the assay with DAPI (mean of runs), with DAPI (run 1) and in the assay on DAPI (run 2) were > 25 µM (inactive), over 25 µM and over 25 µM, respectively. The IC50 in the assay with TAG (mean of runs) was 14.6 µM; in the assay with TAG (run 1) it was 9.4 µM; with TAG (run 2) it was 19.8 µM.

Turning to `COc1cccc(NC(=O)N2CCc3nc(Nc4ccc(C(C)C)cc4)ncc3C2)c1`, the IC50 cytotoxicity (DAPI nuclear signal decrease) in the assay with DAPI (run 1) and with DAPI (run 2) was over 25 µM throughout. The IC50 in the assay with TAG (mean of runs) was 2.73 µM; with TAG (run 1), 2.94 µM; in the assay on TAG (run 2) it was 2.52 µM.

For the compound `O=C1NC(Cc2ccc(O)cc2)c2nc3ccc(F)cc3c(=O)n2-c2cc3ccccc3cc21` (stereo not drawn), the IC50 cytotoxicity (DAPI nuclear signal decrease) with DAPI (run 1) and in the assay with DAPI (run 2) was over 25 µM throughout. Moreover, the IC50 with TAG (mean of runs) is 2.45 µM; with TAG (run 1) it was 2.11 µM; with TAG (run 2) it was 2.79 µM.

In general, IC50 refers to the midpoint of a concentration-inhibition curve.
